From article PMC12483202, “Pharmacokinetic profile of oral firocoxib in the koala (Phascolarctos cinereus)” (PLOS One, 2025)
Like-named read-outs stand apart in the source and are kept apart here.

Columns and labels:
[1] = parameters: method as in ref [7] of S9 Table; details: Calves (10); PO 0.5 mg/kg; ref [7] of S9 Table; cited from earlier work
[2] = cited from earlier work
[3] = cited from earlier work; remark: listed apart in the source
[4] = test system: osteoarthritis in horses; parameters: method as in PMID 36684818; details: cited from earlier work
[5] = parameters: method as in ref [6] of S9 Table; details: Pigs (7); PO 4.0 mg/kg; ref [6] of S9 Table; cited from earlier work
[6] = test system: elephant plasma proteins; parameters: method as in PMID 37428699, PMID 38453490; details: African and Asian elephants; rapid equilibrium dialysis; cited from earlier work
[7] = test system: cyclooxygenase-2; details: based on in vitro studies in other species; cited from earlier work
[8] = cited from earlier work; remark: listed apart in the source
[9] = test system: ovariohysterectomised cats; parameters: method as in PMID 27515266; details: 3 mg/kg/day, cited from earlier work
[10] = test system: koalas; assay: Clinical observations, haematology and biochemistry after repeat dosing; type: in vivo, koala (Phascolarctos cinereus); details: for Phos: reference interval 0.87-2.47
Description: Samples were centrifuged at 1500 x g for 10 minutes, within 1 h of collection; the plasma was immediately stored at –80 °C and protected from light until drug quantification. […] Clinical observations for the presence of adverse effects in the animals treated included measurement of vital signs, appetite, body weight, faecal consistency and overall behaviour and mobility.

[11] = parameters: method as in ref [4] of S9 Table; details: Rabbits (6); PO 3.74 -4.20 mg/kg; ref [4] of S9 Table; cited from earlier work
[12] = Dogs (40), PO 5 mg/kg, ref [1] of S9 Table
[13] = Horses (6), PO 0.1 mg/kg, ref [1] of S9 Table
[14] = Horses (12), IV 0.1 mg/kg, ref [3] of S9 Table
[15] = Horses (12), PO 0.1 mg/kg, ref [3] of S9 Table

**Q.** For `CC1(C)OC(=O)C(OCC2CC2)=C1c1ccc(S(C)(=O)=O)cc1` [firocoxib], which Cmax [1] is on record?
**A.** Its Cmax is 0.1279 µg/mL.

**Q.** And the t1/2 [1]?
**A.** The t1/2 was 18.8 h.

**Q.** What about the t1/2 ([2]; Dogs (6), PO 5 mg/kg, ref [2] of S9 Table) of the same molecule?
**A.** Its t1/2 is 6.5 h.

**Q.** What about the Cmax [2, 12] of the same molecule?
**A.** Its Cmax is 0.52 µg/mL.

**Q.** And the Tmax [2, 12]?
**A.** The Tmax was 1.25 h.

**Q.** And the t1/2 [2, 12]?
**A.** Its t1/2 is 5.9 h.

**Q.** And the Tmax ([2]; dogs)?
**A.** Its Tmax is 1.25 h.

**Q.** What about the “plasma elimination half-life (mean)” value ([2]; dogs) of the same molecule?
**A.** Its value is 5.90 h.

**Q.** What about the “mean Cmax” value ([2]; dogs, oral 5 mg/kg) of the same molecule?
**A.** Its value is 0.52 µg/mL.

**Q.** And the ionizability ([3]; at physiological pH)?
**A.** Its ionizability is “low ionizability”.

**Q.** What about the “-log10 dissociation constant (pka)” value [3] of the same molecule?
**A.** Its value is 19.69.

**Q.** What about the “solubility in dimethyl sulfoxide” value [3] of the same molecule?
**A.** The value was “highly soluble”.

**Q.** What about the solubility in water [3] of the same molecule?
**A.** Its solubility in water is “insoluble”.

**Q.** And the “efficacy for controlling pain and inflammation associated with osteoarthritis” value [4]?
**A.** Its value is “good efficacy”.

**Q.** What about the Cmax [5] of the same molecule?
**A.** Its Cmax is 0.06 µg/mL.

**Q.** What about the Tmax [5] of the same molecule?
**A.** Its Tmax is 7.41 h.

**Q.** And the t1/2 [5]?
**A.** The t1/2 was 24.075 h.

**Q.** What about the “binding to elephant plasma proteins” value [6] of the same molecule?
**A.** The value was 45%.

**Q.** What about the “target plasma concentration to inhibit 80% of cyclooxygenase-2 activity (IC80)” value [7] of the same molecule?
**A.** The value was “approximately 100 ng/mL”.

**Q.** And the Cmax [8, 13]?
**A.** Its Cmax is 0.058 µg/mL.

**Q.** What about the Tmax [8, 13] of the same molecule?
**A.** Its Tmax is 3.2 h.

**Q.** What about the t1/2 [8, 13] of the same molecule?
**A.** Its t1/2 is 32.77 h.

**Q.** What about the Cmax [8, 14] of the same molecule?
**A.** The Cmax was 0.21 µg/mL.

**Q.** And the t1/2 [8, 14]?
**A.** Its t1/2 is 34 h.

**Q.** And the Cmax [8, 15]?
**A.** The Cmax was 0.075 µg/mL.

**Q.** And the Tmax [8, 15]?
**A.** The Tmax was 3.9 h.

**Q.** And the t1/2 [8, 15]?
**A.** Its t1/2 is 30 h.

**Q.** And the Absolute oral bioavailability ([8]; horses dosed at 0.1 mg/kg)?
**A.** Its Absolute oral bioavailability is 79%.

**Q.** What about the Cl ([8]; horses) of the same molecule?
**A.** Its Cl is 0.037 L/h/kg.

**Q.** What about the “Tmax (mean)” value ([8]; horses) of the same molecule?
**A.** Its value is 3.2 h.

**Q.** What about the Vd ([8]; horses) of the same molecule?
**A.** The Vd was 1.7 L/kg.

**Q.** What about the plasma elimination half-life ([8]; horses) of the same molecule?
**A.** Its plasma elimination half-life is 32.8 h.

**Q.** What about the Cmax ([8]; horses, oral 0.1 mg/kg) of the same molecule?
**A.** The Cmax was 0.058 µg/mL.

**Q.** What about the postoperative analgesia ([9]; 1 h prior to induction of anaesthesia and at 24 and 48 h post-surgery) of the same molecule?
**A.** The postoperative analgesia was “some analgesia”.

**Q.** What about the azotaemia ([9]; 72 h after surgery) of the same molecule?
**A.** The azotaemia was “two out of eight cats developed a reversible azotaemia”.

**Q.** And the “appetite, behaviour and mobility” value ([10]; in vivo)?
**A.** The value was “no change from normal appetite, behaviour and mobility”.

**Q.** What about the body weight ([10]; in vivo) of the same molecule?
**A.** Its body weight is “maintained stable body weight”.

**Q.** And the Phos ([10]; koala K2, 72 h, after repeated dosing 5 mg/kg every 12 h)?
**A.** The Phos was 1.48 mmol/L.

**Q.** What about the Phos ([10]; koala K6, 72 h, after repeated dosing 5 mg/kg every 12 h) of the same molecule?
**A.** The Phos was 1.37 mmol/L.

**Q.** And the Na ([10]; koala K6, 72 h, after repeated dosing 5 mg/kg every 12 h, reference interval 132-143)?
**A.** Its Na is 139 mmol/L.

**Q.** And the Cmax [11]?
**A.** The Cmax was 0.16 µg/mL.

**Q.** What about the Tmax [11] of the same molecule?
**A.** Its Tmax is 3.81 h.

**Q.** And the t1/2 [11]?
**A.** The t1/2 was 9.12 h.
